Source: patent publication US9617596B2, “Biomarkers predictive for clinical response for glatiramer acetate” (TEVA PHARMACEUTICAL INDUSTRIES, LTD., priority 2012, dated 2017)

What was measured:
[1] = daily standard dose of 20 mg; cited from earlier work
[2] = test system: RRMS subjects; settings: largest controlled study, cited from earlier work
[3] = test system: ERAP2; test: ERAP2 expression in PBMC of RRMS patients over the course of GA treatment (exon arrays, PCR); format: in vivo, human; settings: baseline, 3, 12 and 24 months of treatment (FIG. 4)
Procedure: Relapsing-remitting multiple sclerosis patients were treated with GA. Whole blood was taken from patients at four time points including baseline (baseline, month 3, month 12 and month 24). Peripheral blood mononuclear cells (PBMCs) were cryopreserved and RNA was isolated for gene expression analysis (FIG. 3).
Gene expression analysis was performed using Affymetrix Human Exon 1.0 ST expression arrays. Preprocessing was performed with an integrated three-step approach: background correction, normalization […] implemented in the Affymetrix Expression Console. Batch effects normalization was performed with the removeBatchEffect function from limma R package.
PCR analysis was performed in order to validate the expression of ERAP2 in Responder populations as compared to Non-Responders and Healthy Controls.

[4] = test system: RRMS subjects; settings: over 9 months of treatment, 20 mg group (17 lesions under placebo); cited from earlier work

For Glatiramer acetate [GA], the tolerability [1] is given as “generally well tolerated”, the relapse rate reduced ([2]; GA 20 mg vs placebo) is given as 32% and the relapse rate ([2]; under GA 20 mg (1.98 under placebo)) is given as 1.34. The “ERAP2 expression change by treatment” value [3] was “not modified” and the “median cumulative number of Gd-enhancing lesions” value [4] was 11 lesions.
